The values below come from ChEMBL document CHEMBL4715740, “Synthesis, anti-inflammatory, analgesic, COX-1/2 inhibitory activities and molecular docking studies of substituted 2-mercapto-4(3H)-quinazolinones” (Eur J Med Chem, 2016).

The subject of one experiment is Mus musculus. As to the kind of experiment: Analgesic activity in Swiss albino mouse administered ip and measured after 60 mins by hot plate method. The class given is functional. As to conditions: 1 h. For orientation: In hot-plate and tail-flick tests a longer latency is read as antinociception.
The next experiment deals with Rattus norvegicus. As to the kind of experiment: Antiinflammatory activity against Sprague-Dawley rat assessed as reduction in carragenan-induced paw edema administered ip and measured after 2 hrs by plethysmometry. The class given is functional.
For experiment [1], the target named is T1, Prostaglandin G/H synthase 1 (Ovis aries, UniProt P05979).
T1 sequence (P05979 whole entry): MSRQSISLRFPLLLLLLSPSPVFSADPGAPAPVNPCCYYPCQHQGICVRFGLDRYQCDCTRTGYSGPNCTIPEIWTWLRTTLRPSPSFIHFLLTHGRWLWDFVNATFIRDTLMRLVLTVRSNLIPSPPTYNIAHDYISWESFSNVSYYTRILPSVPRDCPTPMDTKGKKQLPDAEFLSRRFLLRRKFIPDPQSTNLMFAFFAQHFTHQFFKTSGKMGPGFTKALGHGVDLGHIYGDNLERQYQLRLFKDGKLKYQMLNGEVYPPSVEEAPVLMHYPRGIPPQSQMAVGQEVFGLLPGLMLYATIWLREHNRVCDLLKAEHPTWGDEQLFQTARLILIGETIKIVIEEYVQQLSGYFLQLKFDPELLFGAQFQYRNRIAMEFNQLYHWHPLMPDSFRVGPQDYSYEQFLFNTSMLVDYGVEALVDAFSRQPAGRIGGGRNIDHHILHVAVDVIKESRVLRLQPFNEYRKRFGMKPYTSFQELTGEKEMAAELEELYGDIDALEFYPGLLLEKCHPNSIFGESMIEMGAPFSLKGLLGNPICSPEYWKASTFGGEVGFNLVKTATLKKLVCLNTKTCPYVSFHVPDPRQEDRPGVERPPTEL
Description: Inhibition of ovine COX1 assessed as reduction in PGF2alpha production using arachidonic acid as substrate preincubated with enzyme for 5 mins followed by substrate addition and measured after 2 mins by colorimetric analysis.

The ED50 is the dose at which the effect has come halfway, by size or by number of responders. What is called IC50 is the concentration needed to halve the response being measured.

On to `CSc1nc2ccccc2c(=O)n1CCc1ccccn1`, for which the ED50 with Mus musculus and with Rattus norvegicus was more than 200 mg/kg each time.

For the molecule `O=C1c2ccccc2C(=O)N1CCCSc1nc2ccccc2c(=O)n1CCc1ccccn1`, the ED50 in the experiment on Mus musculus and with Rattus norvegicus was more than 200 mg/kg throughout.

Take `CCNC(=S)NNC(=O)CSc1nc2ccccc2c(=O)n1CCc1ccccn1`: the figures for the ED50 with Mus musculus and in the experiment on Rattus norvegicus were 33.3 mg/kg and 70.5 mg/kg, respectively. Further, the IC50 in experiment [1] is more than 100 µM.

In the case of `O=c1c2ccccc2nc(SCc2nnc(Nc3ccccc3)s2)n1CCc1ccccn1`, the ED50 in the experiment with Mus musculus and with Rattus norvegicus was more than 200 mg/kg each time.

Turning to `CCC(=O)NNC(=O)CSc1nc2ccccc2c(=O)n1CCc1ccccn1`, the ED50 amounted to 95.5 mg/kg with Mus musculus and 83.3 mg/kg in the experiment on Rattus norvegicus. In addition, the IC50 in experiment [1] was more than 100 µM.

Turning to `COc1ccc(C(=O)NNC(=O)CSc2nc3ccccc3c(=O)n2CCc2ccccn2)cc1`, the ED50 in the experiment on Mus musculus and in the experiment on Rattus norvegicus was 101 mg/kg in each case. Further, in experiment [1], the IC50 is more than 100 µM.

Consider `O=c1c2ccccc2nc(SCCN2CCOCC2)n1CCc1ccccn1`, for which the median effective dose (ED50) with Mus musculus and in the experiment on Rattus norvegicus was more than 200 mg/kg each time.

In the case of `O=c1c2ccccc2nc(SCc2nnc(NCc3ccccc3)s2)n1CCc1ccccn1`, the ED50 with Mus musculus and in the experiment on Rattus norvegicus was more than 200 mg/kg each time.

`CCNc1nnc(CSc2nc3ccccc3c(=O)n2CCc2ccccn2)s1`: the median effective dose (ED50) in the experiment on Mus musculus and with Rattus norvegicus was more than 200 mg/kg in each case.

As to `N#CCSc1nc2ccccc2c(=O)n1CCc1ccccn1`, the median effective dose (ED50) in the experiment with Mus musculus and in the experiment on Rattus norvegicus was more than 200 mg/kg throughout.

As for `CCn1c(S)nnc1CSc1nc2ccccc2c(=O)n1CCc1ccccn1`, the ED50 is 71.4 mg/kg with Mus musculus and 91.9 mg/kg in the experiment with Rattus norvegicus. In addition, the IC50 in experiment [1] is more than 100 µM.

Regarding `O=C(CSc1nc2ccccc2c(=O)n1CCc1ccccn1)NNC(=S)NCc1ccccc1`, the ED50 was 47.4 mg/kg with Mus musculus and more than 200 mg/kg in the experiment with Rattus norvegicus.

For the molecule `O=C(CSc1nc2ccccc2c(=O)n1CCc1ccccn1)NNC(=S)Nc1ccccc1`, the ED50 with Mus musculus and with Rattus norvegicus was more than 200 mg/kg in each case.

`CC(C)c1ccc(CSc2nc3ccccc3c(=O)n2CCc2ccccn2)cc1`: the ED50 with Mus musculus and with Rattus norvegicus was more than 200 mg/kg in each case.

As to `O=C(CSc1nc2ccccc2c(=O)n1CCc1ccccn1)NNC(=O)c1ccc(Cl)cc1`, the ED50 with Mus musculus and in the experiment on Rattus norvegicus was more than 200 mg/kg each time.

For `NNC(=O)CSc1nc2ccccc2c(=O)n1CCc1ccccn1`, in experiment [1], the IC50 is more than 100 µM.

`O=c1c2ccccc2nc(SCc2nnc(S)n2Cc2ccccc2)n1CCc1ccccn1`: the ED50 in the experiment on Mus musculus and in the experiment on Rattus norvegicus was more than 200 mg/kg in each case.

On to `CCOC(=O)CSc1nc2ccccc2c(=O)n1CCc1ccccn1`, for which the 50% effective dose (ED50) in the experiment with Mus musculus and in the experiment with Rattus norvegicus was more than 200 mg/kg in each case.

Turning to `O=C(CSc1nc2ccccc2c(=O)n1CCc1ccccn1)NNC(=O)c1ccccc1`, the values for the ED50 in the experiment on Mus musculus and in the experiment with Rattus norvegicus were 86.1 mg/kg and 90.1 mg/kg, respectively. Moreover, the IC50 in experiment [1] was more than 100 µM.

Regarding `O=c1c2ccccc2nc(SCc2ccc(Cl)cc2)n1CCc1ccccn1`, the ED50 in the experiment on Mus musculus was found to be 99.2 mg/kg; in the experiment on Rattus norvegicus it was 65.7 mg/kg. In experiment [1], the IC50 is more than 100 µM.

On to `O=c1c2ccccc2nc(SCc2nnc(S)n2-c2ccccc2)n1CCc1ccccn1`, for which the ED50 in the experiment on Mus musculus and in the experiment with Rattus norvegicus was more than 200 mg/kg in each case.

For the molecule `Cc1ccc(-c2cc(C(F)(F)F)nn2-c2ccc(S(N)(=O)=O)cc2)cc1` [CELECOXIB], the results for the median effective dose (ED50) with Mus musculus and in the experiment on Rattus norvegicus were 71.6 mg/kg and 84.3 mg/kg, respectively.

For the molecule `CCSc1nc2ccccc2c(=O)n1CCc1ccccn1`, the results for the 50% effective dose (ED50) in the experiment with Mus musculus and in the experiment with Rattus norvegicus were 105 mg/kg and 74.5 mg/kg, respectively. Moreover, the IC50 in experiment [1] is more than 100 µM.

`O=c1c2ccccc2nc(S)n1CCc1ccccn1`: the IC50 in experiment [1] is more than 100 µM.

Regarding `COc1ccc(NC(=S)NNC(=O)CSc2nc3ccccc3c(=O)n2CCc2ccccn2)cc1`, the median effective dose (ED50) in the experiment on Mus musculus and in the experiment on Rattus norvegicus was more than 200 mg/kg in each case.

`O=c1c2ccccc2nc(SCc2ccccc2)n1CCc1ccccn1`: the ED50 with Mus musculus and in the experiment with Rattus norvegicus was more than 200 mg/kg in each case.

Regarding `COc1ccc(Nc2nnc(CSc3nc4ccccc4c(=O)n3CCc3ccccn3)s2)cc1`, the ED50 in the experiment on Mus musculus and in the experiment on Rattus norvegicus was more than 200 mg/kg each time.
